These results are taken from US20240085429A1, “ALTERING PROTEIN FUNCTION BY PHARMACOLOGICAL TARGETING OF MEMBRANE DOMAINS” (University of Virginia Patent Foundation, priority 2021, published 2024).

Where a name gives a salt, the structure may show the parent alone.

Common to all, as to parameters: species or system human
Test [1] deals with GPMVs from HeLa cells. The test can be described thus: Assay robustness, SSMD* based on % phase separated GPMVs. The conditions noted are these: for SSMD* based on percentage of phase separated GPMVs: 10 mM (so in the source) vs DMSO, mean±SD, n=3; for SSMD* effect size class: classification per Zhang, 2011. How it is done:
GPMVs were prepared as described above and incubated for 2 hours at RT. They were then seeded into a flat bottom, black-walled 96-well plates (Greiner Bio-One, Kremsmunster, Austria) coated with 0.1% bovine serum albumin and pre-loaded in a checkerboard pattern with DMSO, 10 mM TLCK, or 10 mM C6 ceramide (FIG. 12A). GPMVs were imaged using the ImageXpress Micro XL automated imager using a Nikon 40× super plan fluor ELWD objective and analyzed using the software described above to determine the percentage of phase separated vesicles in each well (FIG. 12B). An estimate for robust strictly standardized mean difference (SSMD*) (Zhang, X. D., Genomics 2007, 89 (4), 552-611; Zhang, X. D., et al., J Biomol Screen 2011, 16 (7), 775-85) was then calculated based on the percentage of phase separated vesicles per well as reported in the NBD-DSPE channel according to the following equation: […]
Here, XP and XN represent the medians of the percentage of phase separated vesicles for the positive controls (C6 ceramide or TLCK) and negative control (DMSO), respectively, whereas śP and śN correspond to the absolute deviations from the median for the positive and negative controls. Three independent GPMV preparations were analyzed on separate days to evaluate reproducibility (FIG. 12C).

Test [2] relates to GPMVs isolated from HeLa cells. The experiment in a line: High-throughput screen of the Cayman bioactive lipid library for effects on GPMV phase behavior (% phase separated vesicles, NBD-DSPE phase preference). The following applies: for Effect on % phase separated vesicles: final drug concentration 1 μM, NBD-DSPE channel; for % phase separated z-score / Pordered z-score: Table 4; for Pordered z-score: NBD-DSPE. How it is done: This approach is not practical for high throughput screening applications, which typically are performed at a single temperature. Changes in the percentage of phase-separated GPMVs were monitored at a single temperature in response to the addition of small molecules as a surrogate for measuring Tmisc directly (FIG. 1A). This approach requires that a significant fraction of GPMVs are phase separated under control conditions, such that experimentally-induced changes can be readily detected.
In phase separated vesicles these markers are enriched in their preferred domains, such that a given vesicle contains a co-existing NBD-DSPE-rich phase and a DiD-rich phase. In contrast, NBD-DSPE and DiD colocalize in a single uniform phase in GPMVs that are not phase separated. We also optimized conditions to isolate and plate GPMVs in multi-well plates.
To provide proof-of-concept, the Cayman lipid library containing ˜850 bioactive lipid-like compounds in the Vanderbilt High-throughput Screening Facility was screened, using […] of each compound across three independent screens. All screens were carried out using an automated microscope/high-content imaging system and robotic plate handler at RT. […] Compounds were initially scored based on their capacity to alter the percentage of phase separated vesicles (FIG. 2A).
HeLa cells were obtained from ATCC (cat #CCL-2) and cultured at 37° C. in 5% CO2 in a humidified tissue culture incubator. […] In brief, cells were plated in 150 mm tissue culture dishes the day before the experiment, to yield a confluence of 70-80% the day of the experiment. To generate GPMVs, cells were rinsed twice in 10 ml of GPMV buffer (2 mM DTT, 25 mM formaldehyde, 150 mM NaCl, 10 mM HEPES, 2 mM CaCl2), pH=7.4) and subsequently incubated in 12 ml of GPMV buffer at 37° C. with gentle shaking at 70 rpm for 1.5 h. The raft marker NBD-DSPE (1,2-distearoyl-sn-glycero-3-phosphoethanolamine-N-(7-nitro-2-1,3-benzoxadiazol-4-yl; Avanti Polar Lipids) and the non-raft marker DiD (1,1′-dioctadecyl-3,3,3′,3′-tetramethylindodicarbocyanine perchlorate; cat #D307 Thermo Scientific) were added from stock solutions in ethanol to the GPMV suspension at final concentrations of 5-6 μg/ml and 1 μg/ml, respectively, for the initial screenings. For some experiments, cells were prelabelled with 5 μg/ml DiD for 8 min at 4° C. and washed several times prior to GPMVs generation. Screening was performed the same day that GPMVs were generated.
[…] GPMVs suspension in GPMV buffer was then added to each well of a 96-well plate to obtain a final drug concentration of 1 μM. The GPMVs were allowed to settle to the bottom of the plates for 1.5 h prior to imaging. Samples were prepared and imaged at RT. The screen was repeated on three different days using three separately prepared batches of GPMVs (3 biological replicates).
Image acquisition was performed with an ImageXpress Micro XL automated microscope (Molecular Devices) using a Nikon 40X 0.6 NA Super Plan Fluor ELWD objective and a Lumencor Sola solid-state light source. Laser autofocus was employed at each site to obtain the best focus z-plane for each channel. […] Sixteen sites were captured per well using a 4.2 MP widefield scientific cMOS camera with a camera binning of 1. Each plate took approximately 1.3 h to image. Multiple plates were loaded to a plate carousel (ThermoScientific), shuttled to/from the ImageXpress via a ThermoScientific CRS F3 robot arm, and automatically run through the Momentum scheduling software (Thermo). To analyze the data, images and metadata were exported as TIFF files and subjected to image analysis using a custom MATLAB-based program as described below.

Test [3] deals with GPMVs generated from HeLa cells. The test can be described thus: Tmisc measurements (temperature scan of % phase separated GPMVs). The conditions noted are these: 1 μM C6 ceramide or 10 μM TLCK, 2 independent experiments. The procedure:
GPMVs were generated from HeLa cells and either labelled with NBD-DSPE and DiI as described above (TLCK experiments) or labelled with DiI-C12 (C6-cermide experiments). They were then treated with 1 μM C6 ceramide (Sigma Aldrich) or 10 μM TLCK (Cayman) for 1-2 h, mounted in a chamber formed from two coverslips separated by a silicon spacer in the continued presence of drug or an equivalent volume of DMSO (final concentration=0.1 mol %), and allowed to settle for 1 h prior to being imaged.
Tmisc measurements for GPMVs treated with C6-ceramide were performed using a Zeiss LSM 510 confocal microscope. […] DiI-C12 fluorescence was excited using the 543 nm line of a HeNe laser and images were collected at 1× digital zoom. […] For these datasets, the number of phase separated GPMVs was scored manually. […]
Tmisc measurements for GPMVs treated with TLCK were performed using a Zeiss A880 confocal microscope. […] NBD-DSPE fluorescence was excited using a 458 Argon laser line and detected using a 458/548 dichroic and 482-614 nm band pass filter. DiD fluorescence was excited using a 633 nm HeNe laser and emission was collected using a 633/698.5 dichroic and a 638-759 nm band pass filter. […] For these datasets, the percentages of phase separated GPMVs were scored using the “colocalization” method using the MATLAB algorithm described above. […]

Take `Cc1ccc(S(=O)(=O)N[C@@H](CCCCN)C(=O)CCl)cc1` [TLCK hydrochloride, Nα-Tosyl-Lys Chloromethyl Ketone]: in test [1], the “SSMD* based on percentage of phase separated GPMVs” value stood at 1.34±0.29 and the “SSMD* effect size class” value is listed as “moderate”. Also, in test [2] (HeLa GPMVs, RT), the “Effect on % phase separated vesicles” value was “↑”. In addition, the “Effect on Pang(ϕ)” value in test [2] (NBD-DSPE raft phase preference, HeLa GPMVs, final 1 μM, RT) is “↑”. For the same compound, in test [2] (HeLa GPMVs, final 1 μM, RT), the “% phase separated z-score” value is given as 6.73 and the Pordered z-score was 5.69. In test [2] (screen result in words), the “raft modulation in the GPMV model” value is reported as “potent raft stabilizer”. For the same compound, in test [3], the “change in Tmisc relative to DMSO” value is given as “increased Tmisc”.
Consider `CCCCCCCCCCCCC/C=C/[C@@H](O)[C@H](CO)NC(=O)CCCCC` [C6 Ceramide (d18:1/6:0)], for which, in test [1], the “SSMD* based on percentage of phase separated GPMVs” value is reported as 8.84±2.65 and the “SSMD* effect size class” value is given as “extremely strong”. In test [2] (HeLa GPMVs, RT), the “Effect on % phase separated vesicles” value was “↓”. Also, in test [2] (HeLa GPMVs, final 1 μM, RT), the “% phase separated z-score” value is listed as −3.01 and the Pordered z-score came out at 0.76. Also, the “change in Tmisc relative to DMSO” value in test [3] is on record as “lowered Tmisc”.
